{"source": "paper PMC5004293", "about": "“Characterization of FRM-36143 as a new γ-secretase modulator for the potential treatment of familial Alzheimer’s disease” (Alzheimer's Research & Therapy, 2016)", "tested_on": "γ-secretase", "test": "Acute oral treatment of wild-type mice, brain Aβ peptides", "format": "in vivo, mouse", "description": "For in vivo assessment of compound efficacy, brain tissue and cerebrospinal fluid (CSF) were collected, snap frozen in liquid nitrogen, and stored at −80 °C. Brain hemispheres were homogenized in 0.6 % diethylamine (DEA) in 50 mM NaCl containing protease inhibitor cocktail (cOmplete mini, EDTA-free, Roche) using sonication (Branson) at 23 % amplitude for 30 s. Homogenates were spun at 227,000 × g for 25 min at 4 °C. Supernatants were diluted fivefold in PBS-T (0.05 % Tween-20) containing 0.67 % BSA and added to the ELISA plate. For CSF, samples were diluted threefold in the PBS-T/BSA buffer. Detection was performed using the SuperSignal™ ELISA Femto substrate (Thermo Fisher), and luminescence was read on an EnVision plate reader (Perkin Elmer).\nMice and rats were maintained on 12/12 h light/dark cycle with food available ad libitum. Drug treatment was prepared in a vehicle of 1 % carboxymethylcellulose (CMC):Tween80 (99.5:0.5). Twelve-week-old wild-type male mice (129S6, Taconic Biosciences, Hudson, NY, USA) or rats (Wistar, Charles River Laboratories) were administered compound p.o. without prior fasting and euthanized by CO2 asphyxiation at specified times post-dosing. After extraction of the brain, the olfactory bulb and hindbrain were removed and the cerebral hemispheres separated (mice) or cut in 4 pieces (rats). The cerebellum was removed for bioanalysis of the compound. CSF was collected from the cisterna magna and blood from a cardiac puncture.", "key": {"[1]": {"details": "WT mice, single oral dose 30 mg/kg, 6 h post-treatment"}, "[2]": {"details": "mice, time course 0.5-24 h, 30 mg/kg p.o."}, "[3]": {"details": "mice, time course, 30 mg/kg p.o."}}, "note": "Entries after “also recorded” stand apart in the source; their conditions may differ.", "data": [{"compound": "COc1nc(C2=NOC[C@H](c3cc4ccccc4o3)N2)ccc1-n1cnc(C)c1", "note": "[FRM-36143, (R)-5-(benzofuran-2-yl)-3-(6-methoxy-5-(4-methyl-1H-imidazol-1-yl)pyridin-2-yl)-5,6-dihydro-4H-1,2,4-oxadiazine]", "values": [{"measurement": "Brain Aβ37 increase vs vehicle", "setting": "[1]", "value": 3.2, "unit": "fold"}, {"measurement": "Brain Aβ42 reduction vs vehicle", "setting": "[1]", "value": 43, "unit": "%"}, {"measurement": "Calculated AUC0→24h of brain Aβ40 reduction", "setting": "mice, 30 mg/kg p.o.", "value": 31, "unit": "%"}, {"measurement": "Calculated AUC0→24h of brain Aβ42 reduction", "setting": "mice, 30 mg/kg p.o.", "value": 34, "unit": "%"}, {"measurement": "Peak reduction of brain Aβ40", "setting": "[2]", "value": 40, "unit": "%"}, {"measurement": "Peak reduction of brain Aβ42", "setting": "[2]", "value": 45, "unit": "%"}, {"measurement": "Change of brain Aβ37 and Aβ38", "setting": "mice, time course, 10 mg/kg p.o.", "value": "induced an increase in Aβ37 and Aβ38"}, {"measurement": "Reduction of brain Aβ40 and Aβ42", "setting": "mice, time course, 10 mg/kg p.o., 10 mg/kg", "value": "did not reduce Aβ40 and Aβ42 to a great extent; also recorded: did not observe any efficacy"}, {"measurement": "Peak increase of brain Aβ37", "setting": "[3]", "value": 3.1, "unit": "fold"}, {"measurement": "Peak increase of brain Aβ38", "setting": "[3]", "value": 2, "unit": "fold"}]}]}
